Source: patent US7811797B2, “α-isomaltosylglucosaccharide-forming enzyme, process and uses of the same” (Kabushiki Kaisha Hayashibara Seibutsu Kagaku Kenkyujo, priority 2000, dated 2010)
Read-outs that look alike come from different tables or passages of the source.

Assays:
[1] = tested on: α-isomaltosylglucosaccharide-forming enzyme; assay: Action on saccharides (substrates), Enzyme of Strain C9; assay type: biochemical, Bacillus globisporus C9; parameters: key: −: it showed no change; +: it showed a slight reduction of the color spot of the substrate and the formation of other reaction product; ++: it showed a high reduction of the color spot of the substrate and the formation of other reaction product; +++: it showed a substantial disappearance of the substrate spot and the formation of other reaction product; conditions: two units/g substrate, substrate 2% (w/v), 30° C., pH 6.0, 24 hours, TLC
Procedure, shortened: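 Purified enzyme from each strain was added at 2 units/g substrate to each of 24 saccharides at 2% (w/v). Incubation ran 24 h at 30° C, pH 6.0, or pH 8.4 for the A19 enzyme. TLC compared reaction mixtures before and after incubation to show whether each substrate was acted on.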

[2] = tested on: α-isomaltosylglucosaccharide-forming enzyme; assay: Transfer-acceptor specificity, Enzyme of Strain N75; assay type: biochemical, Bacillus globisporus N75; conditions: acceptor 1.6%, PINE-DEX #100 donor 4%, one unit/g donor, 30° C., pH 6.0, 24 hours
Procedure, shortened: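 Each candidate acceptor at 1.6% was combined with 4% partial starch hydrolysate donor and 1 unit/g donor (d.s.b.) of purified enzyme. Incubation ran 24 h at 30 °C, pH 6.0 for the C9, C11 and N75 enzymes and pH 8.4 for A19. Transfer products were detected by GLC for mono- and disaccharide acceptors and HPLC for trisaccharide acceptors.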

Salivary amylase [3] = target: T1, Salivary amylase (Homo sapiens, UniProt P0DUB6); assay: Digestion test in vitro, salivary amylase
T1 sequence (P0DUB6 16-511): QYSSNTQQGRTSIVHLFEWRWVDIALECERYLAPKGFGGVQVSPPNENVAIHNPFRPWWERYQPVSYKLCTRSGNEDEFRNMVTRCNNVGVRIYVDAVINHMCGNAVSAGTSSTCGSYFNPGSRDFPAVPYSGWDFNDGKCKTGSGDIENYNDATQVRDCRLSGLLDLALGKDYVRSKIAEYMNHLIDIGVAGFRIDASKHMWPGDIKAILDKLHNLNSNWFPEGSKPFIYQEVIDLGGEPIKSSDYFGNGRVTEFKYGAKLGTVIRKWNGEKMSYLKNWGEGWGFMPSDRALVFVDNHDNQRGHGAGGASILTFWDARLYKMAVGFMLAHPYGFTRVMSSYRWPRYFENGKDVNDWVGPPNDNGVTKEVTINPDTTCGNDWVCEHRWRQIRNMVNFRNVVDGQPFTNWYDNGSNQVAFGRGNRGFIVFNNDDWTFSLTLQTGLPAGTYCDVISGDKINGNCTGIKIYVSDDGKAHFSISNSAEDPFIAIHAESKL

Salivary amylase [4] = target: T1, Salivary amylase
[5] = Amino carbonyl reaction with polypeptone; assay type: physicochemical; conditions: 10% (w/v) with 5% (w/v) polypeptone, 100° C., minus the control
Experimental: Four milliliters of the resulting solution were placed in a glass test tube, sealed, and heated at 100° C. for 30 to 90 min. After allowing to stand for cooling at ambient temperature, each of the resulting solutions was measured for coloration degree to examine on their amino carbonyl reactivity. In parallel, as a control, a solution with only polypeptone was provided and similarly treated as above. The coloration degree was evaluated based on the level of the absorbance, measured in a cell with 1-cm light pass at a wavelength of 480 nm, minus the control.

[6] = tested on: Clostridium perfringens JCM 3816; assay type: cell-based; conditions: PYF medium with 0.5% saccharide, 37° C., four days, anaerobic

## OC[C@@H](O)[C@@H](O[C@H]1O[C@H](CO)[C@@H](O)[C@H](O)[C@H]1O)[C@H](O)[C@@H](O)CO [Maltitol, reference compound]
[1]
  Enzymatic action, Enzyme of Strain C9: −
[2]
  Product of transferring reaction, Enzyme of Strain N75: ++ (a saccharide-transferred product was detected in an amount over ten percent through transfer reaction to acceptor)
Salivary amylase [3]
  Decomposition percentage (%) by digestive enzyme: 0.0%

## OCC1OC2OCC3O[C@H](O[C@H]4C(O)C(CO)OC(OCC5O[C@H](O[C@@H](C1O)C2O)C(O)C(O)[C@@H]5O)C4O)C(O)C(O)[C@@H]3O (stereo partly drawn) [Cyclotetrasaccharide, cyclo{→6)-α-D-glucopyranosyl-(1→3)-α-D-glucopyranosyl-(1→6)-α-D-glucopyranosyl-(1→3)-α-D-glucopyransoyl-(1→}]
Salivary amylase [4]
  Decomposition percentage (%) by digestive enzyme: 0.0%
[5]; heating time 0 min
  Coloration degree (A480 nm): 0.00 A480 nm
[5]; heating time 30 min
  Coloration degree (A480 nm): 0.00 A480 nm
[5]; heating time 60 min
  Coloration degree (A480 nm): 0.00 A480 nm
[5]; heating time 90 min
  Coloration degree (A480 nm): 0.00 A480 nm
[6]
  Assimilability: − (judged negative (−) when the post culture had a pH of 6.0 or higher)
